Laboratory results taken from patent US20140243302A1, “BRIDGED BICYCLIC COMPOUNDS FOR THE TREATMENT OF BACTERIAL INFECTIONS” (priority 2011, published 2014).
In brackets after ≈: the same amount, converted by molar mass.

The compounds below were run on Staphylococcus aureus Smith (assay: MIC assay, modified agar dilution (CLSI), S. aureus Smith). Conditions: Staphylococcus aureus, agar dilution, 35° C., 16-20 hr; lowest concentration that completely inhibited growth; read-out: S_aureus_Smith_WT_MIC.
Assay type: cell-based
Protocol: The potency of antibacterial agents was measured using the Minimal Inhibitory Concentration (MIC) assay. The assay measures the ability of test agents to inhibit the growth of bacteria on agar-containing medium.
The bacterial test strains used were exemplified by Staphylococcus aureus Smith, Enterococcus faecium A2373, Streptococcus pneumoniae IID554, and Escherichia coli ATCC 25922. All strains were maintained as frozen stocks held at −80° C. in skim milk. Other bacterial test strains are well known to those skilled in the art and can be used for testing.
Mueller Hinton Agar (MHA BBL; Becton Dickinson and Company, Sparks, Md.) was used as the medium. MHA was supplemented with 5% defibrinated horse blood (DHB; Nippon Biotest Laboratories inc.) to support the growth of S. pneumoniae and E. faecium.
MIC values were determined using a modified agar dilution procedure described by the Clinical and Laboratory Standards Institute (CLSI; Methods for Dilution Antimicrobial Susceptibility Tests for Bacteria That Grow Aerobically; Approved Standard—Eighth Edition. CLSI document M07-A8 [ISBN 1-56238-689-1]. Clinical and Laboratory Standards Institute, 940 West Valley Road, Suite 1400, Wayne, Pa. 19087-1898 USA, 2009).
Stock solutions (6.4 mgmL) of test compounds were prepared in 100% ultrapure dimethyl sulfoxide (DMSO; source) on the day of the assay. Subsequent serial dilutions were performed to generate solutions with concentrations ranging from 6.4 to 0.0002 mgmL in 100% DMSO.
Agar medium containing test compound was prepared by adding the dilutions of antimicrobial solution to molten MHA at a temperature of 45-50° C. The agar and antimicrobial solution were mixed thoroughly, poured into petri dishes, and allowed to solidify at room temperature. The final concentration of test compounds in the MHA medium ranged from 128 to 0.001 μg/mL with two-fold dilutions. MHA plates lacking antibacterial compound were used for growth controls.
Prior to susceptibility testing, the bacterial isolates were removed from frozen storage, thawed at room temperature, sub-cultured to MHA medium and incubated overnight at 35° C. S. pneumoniae and E. faecium were subcultured on MHA supplemented with 5% DHB at 35° C. with […]. Colonies from each plate were suspended in normal saline. This suspension was adjusted to the turbidity of a 0.5 McFarland standard, 1-2×10^8 colony forming units (CFU) per mL, and diluted 100-fold to 1-2×10^6 CFUmL.
Suspensions of bacterial cultures were applied to the surface of MHA plates containing test compound as well as to a growth control plate lacking test compound using an inoculum-replicating device with 4 mm pins. The replicating device applied 5 uL of the bacterial suspension such that each spot contained approx. 1×10^4 CFU. Plates were dried for about 40 min and incubated at 35° C. for 16-20 hr prior to scoring.

Row | Compound | MIC [µg/mL]
1 | O=C1COc2ccc(CNC34CCC(CCc5c(F)cnc6ccc(OCCCCO)nc56)(CC3)OC4)nc2N1 [Example 36, 6-((1-(2-(3-Fluoro-6-(4-hydroxybutoxy)-1,5-naphthyridin-4-yl)ethyl)-2-oxabicyclo[2.2.2]octan-4-ylamino)methyl)-2H-pyrido[3,2-b][1,4]oxazin-3(4H)-one] | 0.031 (≈ 0.0562 µM)
2 | COc1ccc2ncc(F)c(CC(O)C34CCC(NCc5cc6ccccc6n(C)c5=O)(CC3)CO4)c2n1 (single isomer, unassigned) [Example 133, 3-((1-(2-(3-Fluoro-6-methoxy-1,5-naphthyridin-4-yl)-1-hydroxyethyl)-2-oxabicyclo[2.2.2]octan-4-ylamino)methyl)-1-methylquinolin-2(1H)-one] | 1 (≈ 1.93 µM)
3 | CON=C1COc2ccc(CNC34CCC(CCc5c(F)cnc6ccc(OC)nc56)(CC3)OC4)nc2N1 [Example 47, 6-((1-(2-(3-Fluoro-6-methoxy-1,5-naphthyridin-4-yl)ethyl)-2-oxabicyclo[2.2.2]octan-4-ylamino)methyl)-2H-pyrido[3,2-b][1,4]oxazin-3(4H)-one O-Methyl Oxime] | 2 (≈ 3.83 µM)
4 | COc1ccc2ncc(F)c(CC(O)C34CCC(NCc5ncc6c(n5)NC(=O)CO6)(CC3)CO4)c2n1 (stereo not shown) [Example 143, 2-((1-(2-(3-Fluoro-6-methoxy-1,5-naphthyridin-4-yl)-1-hydroxyethyl)-2-oxabicyclo[2.2.2]octan-4-ylamino)methyl)-6H-pyrimido[5,4-b][1,4]oxazin-7(8H)-one] | 0.031 (≈ 0.0607 µM)
5 | COC(=O)N(Cc1ccc2c(n1)NC(=O)CO2)C12CCC(CCc3c(F)cnc4ccc(OC)nc34)(CC1)OC2 [Example 168, Methyl {1-[2-(3-Fluoro-6-methoxy-1,5-naphthyridin-4-yl)ethyl]-2-oxabicyclo[2.2.2]oct-4-yl}[(3-oxo-3,4-dihydro-2H-pyrido[3,2-b][1,4]oxazin-6-yl)methyl]carbamate] | 16 (≈ 29 µM)
6 | COc1ccc2ncc(F)c(CCC34CCC(NCc5ccc6ccc(=O)[nH]c6n5)(CC3)CO4)c2n1 [Example 83, 7-((1-(2-(3-Fluoro-6-methoxy-1,5-naphthyridin-4-yl)ethyl)-2-oxabicyclo[2.2.2]octan-4-ylamino)methyl)-1,8-naphthyridin-2(1H)-one] | 1 (≈ 2.04 µM)
7 | COc1ccc2ncc(F)c(CCC34CCC(NCc5cccc(C#N)n5)(CC3)CO4)c2n1 [Example 60, 6-(((1-(2-(3-Fluoro-6-methoxy-1,5-naphthyridin-4-yl)ethyl)-2-oxabicyclo[2.2.2]octan-4-yl)amino)methyl)picolinonitrile] | 8 (≈ 17.9 µM)
8 | COc1ccc2ncc(F)c(CCC34CCC(NCc5nc6c(c(C)c5F)OCC(=O)N6)(CC3)CO4)c2n1.Cl [Example 197, 1-(2-(3-Fluoro-6-methoxy-1,5-naphthyridin-4-yl)ethyl)-N-((7-fluoro-8-methyl-3-oxo-3,4-dihydro-2H-pyrido[3,2-b][1,4]oxazin-6-yl)methyl)-2-oxabicyclo[2.2.2]octan-4-aminium chloride] | 0.5
9 | COc1ccc2ncc(F)c(CCC34CCC(NCc5cc6ccc(Cl)cc6n(C)c5=O)(CC3)CO4)c2n1 [Example 104, 7-Chloro-3-((1-(2-(3-fluoro-6-methoxy-1,5-naphthyridin-4-yl)ethyl)-2-oxabicyclo[2.2.2]octan-4-ylamino)methyl)-1-methylquinolin-2(1H)-one] | > 8
10 | COc1ccc2ncc(Cl)c(/C=C\C34CCC(NCc5ccc6c(n5)NC(=O)CO6)(CC3)CC4)c2n1 [Example 8, (Z)-6-((4-(2-(3-Chloro-6-methoxy-1,5-naphthyridin-4-yl)vinyl)bicyclo[2.2.2]octan-1-ylamino)methyl)-2H-pyrido[3,2-b][1,4]oxazin-3(4H)-one] | 0.5 (≈ 0.988 µM)
11 | COc1ccc2ncc(F)c(CC(OCCO)C34CCC(NCc5ccc6c(n5)NC(=O)CO6)(CC3)CO4)c2n1 (stereo not shown) [Example 167, 6-[({1-[2-(3-Fluoro-6-methoxy-1,5-naphthyridin-4-yl)-1-(2-hydroxyethoxy)ethyl]-2-oxabicyclo[2.2.2]oct-4-yl}amino)methyl]-2H-pyrido[3,2-b][1,4]oxazin-3(4H)-one] | 2 (≈ 3.61 µM)
12 | O=C1COc2ccc(CNC34CCC(CCc5c(F)cnc6ccc(N7CC[C@H](O)C7)nc56)(CC3)OC4)nc2N1 [Example 294, (S)-6-((1-(2-(3-Fluoro-6-(3-hydroxypyrrolidin-1-yl)-1,5-naphthyridin-4-yl)ethyl)-2-oxabicyclo[2.2.2]octan-4-ylamino)methyl)-2H-pyrido[3,2-b][1,4]oxazin-3(4H)-one] | 0.125 (≈ 0.228 µM)
13 | COc1nc2c(CCC34CCC(NCc5ccc6c(n5)NC(=O)CO6)(CC3)CO4)c(F)cnc2cc1F [Example 174, 6-[({1-[2-(3,7-Difluoro-6-methoxy-1,5-naphthyridin-4-yl)ethyl]-2-oxabicyclo[2.2.2]oct-4-yl}amino)methyl]-2H-pyrido[3,2-b][1,4]oxazin-3(4H)-one] | 0.031 (≈ 0.0606 µM)
14 | COc1ccc2ncc(F)c(CCC34CCC(NCc5cc(Cl)c6c(c5)OCO6)(CC3)CO4)c2n1 [Example 72, N-((7-Chlorobenzo[d][1,3]dioxol-5-yl)methyl)-1-(2-(3-fluoro-6-methoxy-1,5-naphthyridin-4-yl)ethyl)-2-oxabicyclo[2.2.2]octan-4-amine] | 0.125 (≈ 0.25 µM)
15 | CC(O)CCOc1ccc2ncc(F)c(CCC34CCC(NCc5ccc6c(n5)NC(=O)CO6)(CC3)CO4)c2n1 (stereo not shown) [Example 181, 6-{[(1-{2-[3-Fluoro-6-(3-hydroxybutoxy)-1,5-naphthyridin-4-yl]ethyl}-2-oxabicyclo[2.2.2]oct-4-yl)amino]methyl}-2H-pyrido[3,2-b][1,4]oxazin-3(4H)-one] | 0.125 (≈ 0.227 µM)
16 | COc1ccc2ncc(F)c(CCC34CCC(NCc5cnc6c(c5)OCCN6C)(CC3)CO4)c2n1 [Example 89, 1-(2-(3-Fluoro-6-methoxy-1,5-naphthyridin-4-yl)ethyl)-N-((4-methyl-3,4-dihydro-2H-pyrido[3,2-b][1,4]oxazin-7-yl)methyl)-2-oxabicyclo[2.2.2]octan-4-amine] | 0.125 (≈ 0.253 µM)
17 | O=C1COc2ccc(CNC34CCC(CCc5c(F)cnc6ccc(N7CCC(O)CC7)nc56)(CC3)OC4)nc2N1 [Example 293, 6-((1-(2-(3-Fluoro-6-(4-hydroxypiperidin-1-yl)-1,5-naphthyridin-4-yl)ethyl)-2-oxabicyclo[2.2.2]octan-4-ylamino)methyl)-2H-pyrido[3,2-b][1,4]oxazin-3(4H)-one] | 0.5 (≈ 0.889 µM)
18 | COc1ccc2ncc(F)c(C[C@H](O)C34CCC(NCc5cc6c(cn5)OCCO6)(CC3)CC4)c2n1.Cl (single isomer, unassigned) [Example 201] | 0.06
19 | Cl.O=C1COc2ccc(CNC34CCC(C(O)Cc5c(F)cnc6ccc(OCCO)nc56)(CC3)OC4)nc2N1 (stereo not shown) [Example 171, 6-((1-(2-(3-Fluoro-6-(2-hydroxyethoxy)-1,5-naphthyridin-4-yl)-1-hydroxyethyl)-2-oxabicyclo[2.2.2]octan-4-ylamino)methyl)-2H-pyrido[3,2-b][1,4]oxazin-3(4H)-one Hydrochloride] | 0.125
20 | NCC(O)COc1ccc2ncc(F)c(CCC34CCC(NCc5ccc6c(n5)NC(=O)CO6)(CC3)CO4)c2n1 (stereo not shown) [Example 165, 6-{[(1-{2-[6-(3-Amino-2-hydroxypropoxy)-3-fluoro-1,5-naphthyridin-4-yl]ethyl}-2-oxabicyclo[2.2.2]oct-4-yl)amino]methyl}-2H-pyrido[3,2-b][1,4]oxazin-3(4H)-one] | 2 (≈ 3.62 µM)
21 | CCOC(=O)c1cnc2ccc(OC)nc2c1CCC12CCC(NCc3ccc4c(n3)NC(=O)CO4)(CC1)CC2 [Example 2, Ethyl 6-Methoxy-4-(2-(4-((3-oxo-3,4-dihydro-2H-pyrido[3,2-b][1,4]oxazin-6-yl)methylamino)bicyclo[2.2.2]octan-1-yl)ethyl)-1,5-naphthyridine-3-carboxylate] | 0.125 (≈ 0.229 µM)

Same assay, conditions: agar dilution, 35° C., 16-20 hr; lowest concentration that completely inhibited growth

Row | Compound | S_aureus_Smith_WT_MIC [µg/mL]
22 | COc1cnc2ccc(=O)n(CC(O)C34CCC(NCc5ccc6c(n5)NC(=O)CO6)(CC3)CO4)c2c1 (single isomer, unassigned) [Example 54a, 6-(((1-(1-Hydroxy-2-(7-methoxy-2-oxo-1,5-naphthyridin-1(2H)-yl)ethyl)-2-oxabicyclo[2.2.2]octan-4-yl)amino)methyl)-2H-pyrido[3,2-b][1,4]oxazin-3(4H)-one] | 0.250
